Assay results as given in patent US5328902A, “7-(substituted)-9-[(substituted glycyl)amido]-6-demethyl-6-deoxytetracyclines” (American Cyanamid Co., priority 1992, dated 1994).

What was measured:
[1] = test system: S. hemolyticus AVHAH 88-3; test: MIC, agar dilution; assay type: cell-based; details: S. hemolyticus AVHAH 88-3
[2] = test system: S. aureus UBMS 88-7 Tet K; test: microbe, parasite or virus in culture; assay type: cell-based; details: S. aureus UBMS 88-7 Tet K
[3] = test system: E. coli UBMS 89-2 Tet sens.; test: MIC, agar dilution; assay type: cell-based; details: E. coli UBMS 89-2 Tet sens.
E. coli J3272 Tet sens. = test: MIC, agar dilution; assay type: cell-based
E. coli UBMS 89-1 Tet M = test: microbe, parasite or virus in culture; assay type: cell-based; details: E. coli UBMS 89-1 Tet M
[4] = test system: Ps. acruginosa ATCC 27853; test: MIC, agar dilution; assay type: cell-based; details: Ps. acruginosa ATCC 27853
[5] = test system: E. coli MC 4100 TNIOC Tet B; test: microbe, parasite or virus in culture; assay type: cell-based; details: E. coli MC 4100 TNIOC Tet B
S. aureus IVES 2943 = test: MIC, agar dilution; assay type: cell-based; details: S. aureus IVES 2943
S. mariescens FPOR 8733 = test: MIC, agar dilution; assay type: cell-based
the ribosome = test: Reversibility of binding: bacterial growth resumes after washing; assay type: cell-based; details: bacterial growth resumes when the compound is removed from the cultures by washing
Excerpt: Therefore, the ability of these compounds to inhibit bacterial growth appears to be a direct consequence of its ability to inhibit protein synthesis at the ribosome level.

S. aureus UBMS 88-4 = test: MIC, agar dilution; assay type: cell-based; details: S. aureus UBMS 88-4
[6] = test system: Staphylococcus aureus strain Smith (tetracycline sensitive); test: In vivo antibacterial evaluation, acute lethal infection in mice; details: animals infected with S. aureus Smith, 10080 min
E. coli UBMS 90-4 Tet M = test: microbe, parasite or virus in culture; assay type: cell-based; details: E. coli UBMS 90-4 Tet M
S. aureus UBMS 90-3 = test: MIC, agar dilution; assay type: cell-based; details: S. aureus UBMS 90-3
[7] = test system: Wild Type S30 (wild type ribosomes, E. coli strain MRE600, tetracycline sensitive); test: E. coli in vitro protein translation system, wild type S30
[8] = test system: tetracycline sensitive and resistant Gram-positive and Gram-negative bacteria; test: In vitro antibacterial activity, summary in words of Table I; assay type: cell-based
[9] = test system: S. aureus UBMS 90-2 Tet M; test: microbe, parasite or virus in culture; assay type: cell-based; details: S. aureus UBMS 90-2 Tet M
E. coli J3272 Tet D = test: microbe, parasite or virus in culture; assay type: cell-based; details: E. coli J3272 Tet D
S. aureus ROSE (MP) = test: MIC, agar dilution; assay type: cell-based; details: S. aureus ROSE (MP)
[10] = test system: S. aureus UBMS 90-1 Tet M; test: microbe, parasite or virus in culture; assay type: cell-based; details: S. aureus UBMS 90-1 Tet M
S. aureus SMITH (MP) = test: MIC, agar dilution; assay type: cell-based; details: S. aureus SMITH (MP)
E. coli PRP1 Tet A = test: microbe, parasite or virus in culture; assay type: cell-based; details: E. coli PRP1 Tet A
E. coli UBMS 88-1 Tet B = test: microbe, parasite or virus in culture; assay type: cell-based; details: E. coli UBMS 88-1 Tet B; 18 hours at 35° C.
E. coli UBMS 90-5 = test: MIC, agar dilution; assay type: cell-based
S. aureus IVES 1 983 = test: MIC, agar dilution; assay type: cell-based; details: S. aureus IVES 1 983

CC1CCN(CC(=O)Nc2cc(N(C)C)c3c(c2O)C(=O)C2=C(O)C4(O)C(=O)C(C(N)=O)=C(O)C(N(C)C)C4CC2C3)CC1.Cl.Cl (stereo not drawn) [G, [7S-(7alpha,10aalpha)]-N-[9-(Aminocarbonyl)4,7-bis(dimethylamino)-5,5a,6,6a,7,10,10a,12-octahydro-1,8,10a,ll-tetrahydroxy-10,12-dioxo-2-naphthacenyl]-4-methyl-l-piperidineacetamide dihydrochloride]
MIC [1]: 1 µg/mL
MIC [2]: 0.5 µg/mL
MIC [3]: 2 µg/mL
MIC (E. coli J3272 Tet sens.): 1 µg/mL
MIC (E. coli UBMS 89-1 Tet M): 0.5 µg/mL
MIC [4]: 32 µg/mL
MIC [5]: 2 µg/mL
MIC (S. aureus IVES 2943): 0.5 µg/mL
MIC (S. mariescens FPOR 8733): 16 µg/mL
reversibility of binding to the ribosome (the ribosome): bind reversibly
MIC (S. aureus UBMS 88-4): 0.5 µg/mL
ED50 ([6]; administered intravenously): 1 to 2 mg/kg
ED50 ([6]; given orally): 4 to 8 mg/kg
MIC (E. coli UBMS 90-4 Tet M): 1 µg/mL
MIC (S. aureus UBMS 90-3): 0.5 µg/mL
% Inhibition Wild Type S30 ([7]; Conc. 0.06 mg/ml): 90%
% Inhibition Wild Type S30 ([7]; Conc. 1.0 mg/ml): 99%
inhibition of protein synthesis occuring on wild type ribosomes ([7]; coupled transcription and translation system): effectively inhibit protein synthesis
activity against E. coli tetA, E. coli tetC and E. coli tetD [8]: good activity
in vitro activity against tetracycline resistant strains containing tetM and tetB resistance determinants ([8]; S. aureus UBMS 88-5, 90-1, 90-2, E. coli UBMS 89-1, 90-4, 88-1, TN10C tetB): excellent
activity against recently isolated bacteria from clinical sources compared with minocycline ([8]; clinical isolates): superior to that of minocycline
activity against susceptible strains compared with minocycline ([8]; susceptible strains): equallyas effective as minocycline
MIC [9]: 0.5 µg/mL
MIC (E. coli J3272 Tet D): 0.25 µg/mL
MIC (S. aureus ROSE (MP)): 1 µg/mL
MIC [10]: 0.5 µg/mL
MIC (S. aureus SMITH (MP)): 0.5 µg/mL
MIC (E. coli PRP1 Tet A): 2 µg/mL
MIC (E. coli UBMS 88-1 Tet B): 2 µg/mL
MIC (E. coli UBMS 90-5): 2 µg/mL
MIC (S. aureus IVES 1 983): 0.5 µg/mL
